According to PubChem BioAssay (NCI):
Several values for one entry are separate records, joined by “and”; a condition that tells them apart may be missing. Equal values may be shown once.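 Step 1: Grow cells in 96-well plates. Step 2: Expose to compound for 48 hours at 5 concentrations. Step 3: Interpolate endpoints linearly; if unreached, use highest concentration. The concentration for 50% growth inhibition is given as GI50. TGI marks complete inhibition of growth.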

Key:
Assay in all cases: NCI anticancer screen, dose series, 48 h
[1] = system: K-562 leukemia
[2] = system: SF-268 CNS
[3] = system: SF-295 CNS
[4] = system: DLD-1 colon
[5] = system: HCC-2998 colon
[6] = system: KM20L2 colon
[7] = system: HT29 colon
[8] = system: UACC-62 melanoma
[9] = system: OVCAR-8 ovarian
[10] = system: HCT-116 colon
[11] = system: CAKI-1 renal

Row | SMILES | TGI [1] | TGI [2] | TGI [3] | TGI [4] | TGI [5] [µM] | TGI [6] [µM] | TGI [7] | TGI [8] | TGI [9] | TGI [10] | TGI [11] [µM] | GI50 [1] [µM] | GI50 [2] [µM] | GI50 [3] [µM] | GI50 [4] [µM] | GI50 [6] [µM] | GI50 [7] [µM] | GI50 [9] [µM] | GI50 [10] [µM]
1 | Nc1nn(CC(O)CO)c(=O)s1 (stereo unspecified) | > 100 µM | > 100 µM | > 100 µM | > 100 µM | > 100 | > 100 | > 100 µM | > 100 µM | > 100 µM | > 100 µM | – | – | – | – | – | – | – | – | –
2 | N/C(=N\N=C\c1cc2c(cc1Cl)OCO2)NO | > 100 µM | > 100 µM | 74.8 µM | > 100 µM | 97.8 | > 100 | > 100 µM | > 84.1 µM | > 100 µM | > 100 µM | > 100 | – | – | – | – | – | – | – | –
3 | O=C1OC(c2ccc(Cl)cc2)(c2ccc(Cl)cc2)c2c1ccc1ccccc21 | > 100 µM | > 100 µM | > 100 µM | > 100 µM | > 100 | > 100 | > 100 µM | > 100 µM | > 100 µM | – | > 100 | – | – | – | – | – | – | – | –
4 | CCOC(=O)C1=NN(c2ccc(Cl)cc2)C2=CC(C)=NN(C)C(=S)N21 | > 100 µM | > 100 µM | > 100 µM | – | > 100 | – | > 100 µM | > 100 µM | > 100 µM | > 100 µM | 50.4 | – | – | – | – | – | – | – | –
5 | C=CC[N+](CCO)(CCO)CCCCCCCCCCCCCCCCCC | 18.2 µM | 13.3 µM | 21.5 µM | 30.2 µM | 10.6 | 17.1 | 12 µM | 20.2 µM | 59.5 µM | 14.7 µM | 17.9 | – | – | – | – | – | – | – | –
6 | COc1ccc(/C=N/n2cnc3c(c2=O)S/C(=C2/SC(=S)N(c4ccc(C)cc4)C2=O)N3c2ccccc2)cc1 | > 10 µM | 99.5 µM | 38.1 µM | – | > 100 | > 100 | > 100 µM | 51.9 µM | > 100 µM | > 100 µM | > 10 | – | – | – | – | – | – | – | –
7 | C[C@H](CN1CC(=O)NC(=O)C1)N1CC(=O)NC(=O)C1 | > 100 µM | > 100 µM | > 100 µM | > 100 µM | > 100 | > 100 | > 100 µM | > 100 µM | > 100 µM | > 100 µM | > 100 | – | – | – | – | – | – | – | –
8 | C=C1C(=O)O[C@@H]2OC3(C)CCC4C(C)CCC1C42OO3 (stereo partly specified) | 6.76 µM and 18.1 µM | 18.1 µM and 11.6 µM | 25.1 µM and 13.4 µM | 4.72 µM and 4.65 µM | 25.9 | 24.1 | 11.2 µM and 6.73 µM | 6.86 µM and 5.17 µM | 16.2 µM and 11.7 µM | 10.2 µM and 3.52 µM | 5.95 | 2.32 | 4.56 | 11.7 | 1.02 | 11.1 | 3.21 | 3.47 | 2.47
